Like-named read-outs stand apart in the source and are kept apart here.
Columns and labels:
[1] = target: human D2 dopamine receptor (Homo sapiens, UniProt P14416); test: R-SAT functional receptor assay, D2 receptor co-expressed with Gαo; conditions: for Emax: read-out: % basal response (D2 intrinsic activity); for activity at 1 µM: read-out: D2 basal (basal response, no drug = 100%)
human D2 receptors = target: T1, human D2 receptors (Homo sapiens, UniProt P14416); test: competitive radioligand D2 binding assay, (Methoxy-3H)-raclopride, membranes of transfected HEK-293T cells; conditions: mean of one or two experiments; butaclamol as control
T1 construct: expressed in transfected cells; host or cells: HEK-293T

[2] = target: human D3 dopamine receptor (Homo sapiens, UniProt P35462); test: R-SAT functional receptor assay, D3 receptor co-expressed with Gαo; conditions: for activity at 1 µM: read-out: D3 basal (basal response, no drug = 100%)
[3] = steady state kinetics in humans given clozapine; cited from earlier work
[4] = compounds at 1 μM, mean +/− standard error, R-SAT

T1 sequence (P14416 whole entry): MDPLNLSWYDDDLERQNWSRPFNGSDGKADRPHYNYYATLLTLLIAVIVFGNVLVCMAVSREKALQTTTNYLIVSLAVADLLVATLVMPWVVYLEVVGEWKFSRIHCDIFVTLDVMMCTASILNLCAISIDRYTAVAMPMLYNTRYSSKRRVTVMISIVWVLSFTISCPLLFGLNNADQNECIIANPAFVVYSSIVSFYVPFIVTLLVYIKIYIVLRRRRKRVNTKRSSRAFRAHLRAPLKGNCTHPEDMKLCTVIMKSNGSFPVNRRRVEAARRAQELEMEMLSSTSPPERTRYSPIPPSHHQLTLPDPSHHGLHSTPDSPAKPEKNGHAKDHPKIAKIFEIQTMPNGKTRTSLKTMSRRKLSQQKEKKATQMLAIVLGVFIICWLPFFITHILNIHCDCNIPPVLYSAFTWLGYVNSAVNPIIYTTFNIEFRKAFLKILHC
human D2 dopamine receptor, sequence (P14416 whole entry): as above
human D3 dopamine receptor, sequence (P35462 whole entry): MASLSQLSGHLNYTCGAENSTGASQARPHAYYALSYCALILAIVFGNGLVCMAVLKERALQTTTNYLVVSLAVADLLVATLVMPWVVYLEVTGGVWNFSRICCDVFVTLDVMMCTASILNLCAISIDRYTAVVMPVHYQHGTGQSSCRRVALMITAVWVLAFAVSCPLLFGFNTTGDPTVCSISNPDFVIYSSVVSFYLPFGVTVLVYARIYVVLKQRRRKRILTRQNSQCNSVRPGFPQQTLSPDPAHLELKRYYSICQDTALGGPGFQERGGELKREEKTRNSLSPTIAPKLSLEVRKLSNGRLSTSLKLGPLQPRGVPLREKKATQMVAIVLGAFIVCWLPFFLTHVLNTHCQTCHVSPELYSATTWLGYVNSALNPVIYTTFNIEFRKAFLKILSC

Which “D2 basal (basal response, no drug = 100%)” value [1, 4] does the source give for CC(C)(C)[C@]1(O)CCN2C[C@H]3c4ccccc4CCc4cccc(c43)[C@@H]2C1 [butaclamol] here?
The value was 60 +/− 2%.

What does the source list for Fc1ccc2c(c1)N=C(N1CCNCC1)c1ccccc1O2?
Ki (human D2 receptors): 501 nM; Emax [1]: 207%

Which Ki (human D2 receptors) does the source give for Clc1ccc2c(c1)N=C(NC[C@@H]1CCCN1)c1ccccc1N2 here?
The Ki was 1580 nM.

And the Emax [1]?
Its Emax is 105%.

For Cc1cccc2c1Oc1ccc(C(F)(F)F)cc1N=C2N1CCNCC1, which Ki (human D2 receptors) is on record?
The Ki was 2510 nM.

And the Emax [1]?
Its Emax is 118%.

Which “D2 basal (basal response, no drug = 100%)” value [1, 4] does the source give for CCN(CC)CCCN1c2ccccc2Sc2ccc(Cl)cc21 [chlorproethazine] here?
The value was 60 +/− 7%.

And the “D3 basal (basal response, no drug = 100%)” value [2, 4]?
Its value is 63 +/− 10%.

With Brc1ccc2c(c1)N=C(N1CCNCC1)c1ccccc1O2 as the compound, how does the Ki (human D2 receptors) read?
Its Ki is 126 nM.

And the Emax [1]?
The Emax was 155%.

For CC1CCN(CCCC(=O)c2ccc(F)cc2)CC1 [melperone], which activity at 1 µM [1] is on record?
The activity at 1 µM was 76%.

And the activity at 1 µM [2]?
Its activity at 1 µM is 75%.

Which “D2 basal (basal response, no drug = 100%)” value [1] does the source give for Cc1nc2n(c(=O)c1CCN1CCC(c3noc4cc(F)ccc34)CC1)CCCC2 [risperidone] here?
The value was 63 +/− 2%.

With OCCN1CCN(CC/C=C2\c3ccccc3Sc3ccc(C(F)(F)F)cc32)CC1 [trans-(e)-flupenthixol] as the compound, how does the “D2 basal (basal response, no drug = 100%)” value [1] read?
Its value is 68 +/− 4%.

Which Ki (human D2 receptors) does the source give for Clc1ccc2c(c1)N=C(N1CCCNCC1)c1ccccc1N2 here?
Its Ki is 2000 nM.

And the Emax [1]?
The Emax was 172%.

What does the source list for O=C(CCCN1CCC(O)(c2cccc(C(F)(F)F)c2)CC1)c1ccc(F)cc1 [trifluperidol]?
activity at 1 µM [1]: 58%; activity at 1 µM [2]: 54%

With Cc1cccc2c1Oc1ccc(F)cc1N=C2N1CCNCC1 as the compound, how does the Ki (human D2 receptors) read?
The Ki was 316 nM.

What about the Emax [1] of the same compound?
Its Emax is 126%.

With O=C(CCCN1CCC2(CC1)C(=O)NCN2c1ccccc1)c1ccc(F)cc1 [spiperone] as the compound, how does the “D2 basal (basal response, no drug = 100%)” value [1] read?
Its value is 51 +/− 1%.

For CCN(CC)CCNC(=O)c1cc(S(C)(=O)=O)ccc1OC [tiapride], which activity at 1 µM [1] is on record?
The activity at 1 µM was 65%.

And the activity at 1 µM [2]?
Its activity at 1 µM is 57%.

With CN1CCN(CCCN2c3ccccc3Sc3ccc(C(F)(F)F)cc32)CC1 [trifluoperazine] as the compound, how does the activity at 1 µM [1] read?
Its activity at 1 µM is 58%.

For OCCN1CCN(CC/C=C2/c3ccccc3Sc3ccc(C(F)(F)F)cc32)CC1 [cis-flupenthixol], which “D2 basal (basal response, no drug = 100%)” value [1] is on record?
Its value is 59 +/− 4%.

Which results are given for CCc1c(C)[nH]c2c1C(=O)C(CN1CCOCC1)CC2 (stereo not shown) [molindone]?
activity at 1 µM [1]: 70%; activity at 1 µM [2]: 65%

With OCCN1CCN(CCCN2c3ccccc3Sc3ccc(C(F)(F)F)cc32)CC1 [fluphenazine] as the compound, how does the activity at 1 µM [1] read?
Its activity at 1 µM is 61%.

What about the activity at 1 µM [2] of the same compound?
The activity at 1 µM was 55%.

For Brc1ccc2c(c1)N=C(N1CCNCC1)c1ccccc1N2, which Ki (human D2 receptors) is on record?
Its Ki is 158 nM.

What about the Emax [1] of the same compound?
The Emax was 147%.

Which activity at 1 µM [1] does the source give for CN1CCN(CC/C=C2/c3ccccc3Sc3ccc(S(=O)(=O)N(C)C)cc32)CC1 [thiothixene] here?
The activity at 1 µM was 73%.

And the activity at 1 µM [2]?
Its activity at 1 µM is 68%.

For CCN1CCCC1CNC(=O)c1cc(S(N)(=O)=O)ccc1OC (stereo not shown) [sulpiride], which activity at 1 µM [1] is on record?
Its activity at 1 µM is 59%.

And the “D3 basal (basal response, no drug = 100%)” value [2, 4]?
Its value is 55 +/− 9%.

With N#Cc1ccc2c(c1)N=C(N1CCNCC1)c1ccccc1N2 as the compound, how does the Ki (human D2 receptors) read?
The Ki was 5010 nM.

And the Emax [1]?
The Emax was 201%.

With CN1CCN(C2Cc3ccccc3Sc3ccc(Cl)cc32)CC1.O=C(O)/C=C\C(=O)O (stereo not shown) [octoclothepin] as the compound, how does the “D3 basal (basal response, no drug = 100%)” value [2] read?
Its value is 60 +/− 8%.

Which Ki (human D2 receptors) does the source give for Clc1ccc2c(c1)N=C(N1CC3CC1CN3)c1ccccc1N2 (stereo not shown) here?
The Ki was 2510 nM.

And the Emax [1]?
The Emax was 116%.

For O=C1NCCN1CCN1CCC(c2cn(-c3ccc(F)cc3)c3ccc(Cl)cc23)CC1 [sertindole], which activity at 1 µM [1] is on record?
The activity at 1 µM was 61%.

What does the source list for O=C1NCN(c2ccccc2)C12CCN(CCCC(c1ccc(F)cc1)c1ccc(F)cc1)CC2 [fluspirilene]?
activity at 1 µM [1]: 52%; activity at 1 µM [2]: 45%

With CN1CCN(CCCN2c3ccccc3Sc3ccc(Cl)cc32)CC1 [prochlorperazine] as the compound, how does the activity at 1 µM [1] read?
The activity at 1 µM was 57%.

And the activity at 1 µM [2]?
The activity at 1 µM was 53%.

Which Ki (human D2 receptors) does the source give for CN1c2ccc(Cl)cc2N=C(N2CCNCC2)c2ccccc21 here?
Its Ki is 794 nM.

And the Emax [1]?
Its Emax is 141%.

For Cc1cccc2c1Nc1ccc(Cl)cc1N=C2N1CCNCC1, which Ki (human D2 receptors) is on record?
Its Ki is 6310 nM.

And the Emax [1]?
The Emax was 102%.

With O=C1Cc2cc(CCN3CCN(c4nsc5ccccc45)CC3)c(Cl)cc2N1 [ziprasidone] as the compound, how does the “D2 basal (basal response, no drug = 100%)” value [1, 4] read?
The value was 66 +/− 8%.

For CCN1CCC[C@H]1CNC(=O)c1c(O)c(Cl)cc(Cl)c1OC (racemic) [S(−)-raclopride], which “D2 basal (basal response, no drug = 100%)” value [1, 4] is on record?
The value was 60− %.

What about the “D3 basal (basal response, no drug = 100%)” value [2, 4] of the same compound?
The value was 56− %.

Which results are given for CN1CCN(C2=Nc3ccccc3Cc3ccccc32)CC1 [perlapine]?
activity at 1 µM [1]: 58%; activity at 1 µM [2]: 74%

For CN(C)CCCN1c2ccccc2Sc2ccccc21 [promazine], which activity at 1 µM [1] is on record?
Its activity at 1 µM is 76%.

What about the activity at 1 µM [2] of the same compound?
Its activity at 1 µM is 83%.

Which results are given for O=C(CCCN1CCC(O)(c2ccc(Br)cc2)CC1)c1ccc(F)cc1 [bromperidol]?
activity at 1 µM [1]: 46%; activity at 1 µM [2]: 43%

For OCCN1CCN([C@@H]2C[C@@H](c3ccc(F)cc3)c3ccc(C(F)(F)F)cc32)CC1 (racemic) [tefludazine], which activity at 1 µM [1] is on record?
Its activity at 1 µM is 67%.

What about the activity at 1 µM [2] of the same compound?
Its activity at 1 µM is 47%.

With CSc1ccc2c(c1)N(CCC1CCCCN1C)c1ccccc1S2 (stereo not shown) [thioridazine] as the compound, how does the activity at 1 µM [1] read?
Its activity at 1 µM is 81%.

And the activity at 1 µM [2]?
The activity at 1 µM was 81%.

Which results are given for Cc1ccc(C2(O)CCN(CCCC(=O)c3ccc(F)cc3)CC2)cc1 [moperone]?
activity at 1 µM [1]: 64%; activity at 1 µM [2]: 52%

With Clc1ccc2c(c1)N=C(N1CCNCC1)c1ccccc1C2 as the compound, how does the Ki (human D2 receptors) read?
Its Ki is 12.6 nM.

And the Emax [1]?
Its Emax is 260%.

For Fc1ccc2c(c1)N=C(N1CCNCC1)c1ccccc1N2, which Ki (human D2 receptors) is on record?
Its Ki is 2510 nM.

And the Emax [1]?
Its Emax is 170%.

For Brc1ccc2c(c1)N=C(N1CCNCC1)CCN2, which Emax [1] is on record?
The Emax was 142%.

With Cc1nc2c(C)cccn2c(=O)c1CCN1CCC(c2noc3cc(F)ccc23)CC1 [ocaperiodone] as the compound, how does the “D2 basal (basal response, no drug = 100%)” value [1, 4] read?
Its value is 62 +/− 8%.

And the “D3 basal (basal response, no drug = 100%)” value [2, 4]?
The value was 51 +/− 10%.

What does the source list for Clc1ccc2c(c1)N=C(N1CCNCC1)c1ccccc1N2 [N-desmethylclozapine, 8-chloro-11-(1-piperazinyl)-5H-dibenzo[b,e][1,4]diazepine]?
EC50 [1]: 31.6 nM; intrinsic activity at D2 receptor (in words) ([1]; R-SAT): partial agonist; relative efficacy to pergolide at D2 ([1]; R-SAT): 34%; D2 basal (basal response, no drug = 100%) [1, 4]: 229 +/− 21%; EC50 [2]: 100 nM; intrinsic activity at D3 receptor (in words) ([2]; R-SAT): partial agonist; relative efficacy to pergolide at D3 ([2]; R-SAT): 40%; activity at 1 µM [2]: 188%; share of NDMC in total serum clozapine concentrations [3]: 40-75%

For Cc1cc2c(s1)Nc1ccccc1N=C2N1CCN(C)CC1 [olanzapine], which “D2 basal (basal response, no drug = 100%)” value [1] is on record?
Its value is 83 +/− 6%.

And the “D3 basal (basal response, no drug = 100%)” value [2, 4]?
Its value is 83 +/− 6%.

What does the source list for Cc1cccc2c1Oc1ccc(Br)cc1N=C2N1CCNCC1?
Ki (human D2 receptors): 794 nM; Emax [1]: 112%

With Clc1ccc2c(c1)N=C(N1CCNCC1)c1ccccc1O2 as the compound, how does the Ki (human D2 receptors) read?
Its Ki is 251 nM.

And the Emax [1]?
The Emax was 150%.

With O=c1[nH]c2ccccc2n1C1CCN(CCCC(c2ccc(F)cc2)c2ccc(F)cc2)CC1 [pimozide] as the compound, how does the activity at 1 µM [1] read?
The activity at 1 µM was 43%.

What about the activity at 1 µM [2] of the same compound?
The activity at 1 µM was 54%.

With Cc1cccc2c1Oc1ccc(Cl)cc1N=C2N1CCNCC1 as the compound, how does the Ki (human D2 receptors) read?
Its Ki is 316 nM.

What about the Emax [1] of the same compound?
The Emax was 106%.

— US20060252744A1 (priority 2005, published 2006)
